Where a name gives a salt, the structure may show the parent alone.
Molecular target: T1, human β-Secretase (Homo sapiens, UniProt P56817)
T1 construct: The soluble part of the human β-Secretase (AA 1-AA 460) was cloned; made in house
Assay: TR-FRET assay;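 further: sBACE-Fc from HEK 293 cells, compound preincubated 10 min, then 15 min substrate reaction at RT in darkness, 5% DMSO, DMSO control as 100% and enzyme-free wells as 0%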
Assay type: biochemical
Conditions: soluble human β-Secretase (sBACE-Fc), pH 4.5

[1] = substrate (Europium)[…](Qsy7) 100 nM

T1 sequence (P56817 22-460): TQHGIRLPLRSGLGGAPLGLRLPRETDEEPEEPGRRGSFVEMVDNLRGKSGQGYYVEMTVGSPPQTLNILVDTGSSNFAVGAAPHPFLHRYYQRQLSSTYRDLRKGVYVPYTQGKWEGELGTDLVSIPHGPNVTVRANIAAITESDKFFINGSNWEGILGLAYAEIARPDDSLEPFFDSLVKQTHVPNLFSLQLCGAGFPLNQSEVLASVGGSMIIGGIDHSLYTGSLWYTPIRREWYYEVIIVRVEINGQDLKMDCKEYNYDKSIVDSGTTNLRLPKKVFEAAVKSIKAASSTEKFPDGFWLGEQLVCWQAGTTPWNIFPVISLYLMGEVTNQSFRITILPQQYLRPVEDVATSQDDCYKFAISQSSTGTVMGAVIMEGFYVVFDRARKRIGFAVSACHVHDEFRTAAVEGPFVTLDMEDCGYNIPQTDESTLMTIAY

Row | Molecule | IC50 (substrate (Europium)CEVNLDAEFK(Qsy7) 100 nM) | IC50 [1]
1 | 4-[5-Amino-7-(3′,5′-dichlorobiphenyl-3-yl)-2,7-dihydro-3H-imidazo[1,5-a]imidazol-7-yl]phenyl methanesulfonate 0.25 acetate [Example 61] | 146 nM | –
2 | COc1ccc(C2(c3cccc(-c4cc(Cl)cc(Cl)c4)c3)N=C(N)N3CC(O)CN=C32)cc1 (mixture of isomers) [Example 125, 6-Amino-8-(3′,5′-dichlorobiphenyl-3-yl)-8-(4-methoxyphenyl)-2,3,4,8-tetrahydroimidazo[1,5-a]pyrimidin-3-ol] | – | 22 nM
3 | COc1ccc(C2(c3cccc(-c4cc(Cl)cc(Cl)c4)c3)N=C(N)N3CC(OC)CN=C32)cc1 (mixture of isomers) [Example 126, 8-(3′,5′-Dichlorobiphenyl-3-yl)-3-methoxy-8-(4-methoxyphenyl)-2,3,4,8-tetrahydroimidazo[1,5-a]pyrimidin-6-amine] | – | 41 nM
4 | COc1ccc(C2(c3cccc(-c4cc(Cl)cc(Cl)c4)c3)N=C(N)N3CC(C#N)CN=C32)cc1 (mixture of isomers) [Example 127, 6-Amino-8-(3′,5′-dichlorobiphenyl-3-yl)-8-(4-methoxyphenyl)-2,3,4,8-tetrahydroimidazo[1,5-a]pyrimidine-3-carbonitrile] | – | 27 nM
5 | COc1ccc(C2(c3cccc(-c4cc(Cl)cc(Cl)c4)c3)N=C(N)N3CC(C(=O)O)CN=C32)cc1 (mixture of isomers) [Example 128, 6-Amino-8-(3′,5′-dichlorobiphenyl-3-yl)-8-(4-methoxyphenyl)-2,3,4,8-tetrahydroimidazo[1,5-a]pyrimidine-3-carboxylic acid] | – | 34 nM
6 | COc1ccc(C2(c3cccc(-c4cc(Cl)cc(Cl)c4)c3)N=C(N)N3CC(NC(C)=O)CN=C32)cc1 (mixture of isomers) [Example 129, N-[6-amino-8-(3′,5′-dichlorobiphenyl-3-yl)-8-(4-methoxyphenyl)-2,3,4,8-tetrahydroimidazo[1,5-a]pyrimidin-3-yl]acetamide] | – | 21 nM
7 | COc1ccc(C2(c3cccc(-c4cc(Cl)cc(Cl)c4)c3)N=C(N)N3CC(NS(C)(=O)=O)CN=C32)cc1 (mixture of isomers) [Example 130, N-[6-Amino-8-(3′,5′-dichlorobiphenyl-3-yl)-8-(4-methoxyphenyl)-2,3,4,8-tetrahydroimidazo[1,5-a]pyrimidin-3-yl]methanesulfonamide] | – | 17 nM
8 | COc1ccc(C2(c3cccc(-c4cc(Cl)cc(Cl)c4)c3)N=C(N)N3C2=NCC[C@H]3C(=O)O)cc1 (mixture of isomers) [Example 131, (4S)-6-amino-8-(3′,5′-dichlorobiphenyl-3-yl)-8-(4-methoxyphenyl)-2,3,4,8-tetrahydroimidazo[1,5-a]pyrimidine-4-carboxylic acid] | – | 159 nM
9 | COc1cccc(-c2cccc(C3(c4ccccc4)N=C(N)N4CCCN=C43)c2)c1 (stereo not shown) [Example 30, 8-(3′-Methoxybiphenyl-3-yl)-8-phenyl-2,3,4,8-tetrahydroimidazo[1,5-a]pyrimidin-6-amine hydrochloride] | – | 510 nM
10 | NC1=NC(c2ccccc2)(c2cccc(-c3cccc(Cl)c3)c2)C2=NCCCN12 (stereo not shown) [Example 31, 8-(3′-Chlorobiphenyl-3-yl)-8-phenyl-2,3,4,8-tetrahydroimidazo[1,5-a]pyrimidin-6-amine hydrochloride] | – | 255 nM
11 | NC1=NC(c2ccc(OS(=O)(=O)C(F)(F)F)cc2)(c2cccc(-c3cccc(Cl)c3)c2)C2=NCCN12 (stereo not shown) [Example 96, 4-[5-Amino-7-(3′-chlorobiphenyl-3-yl)-2,7-dihydro-3H-imidazo[1,5-a]imidazol-7-yl]phenyl trifluoromethanesulfonate 0.75 acetate] | – | 227 nM
12 | NC1=NC(c2ccc(OS(=O)(=O)C(F)(F)F)cc2)(c2cccc(-c3cccc(Cl)c3)c2)C2=NCCCN12 (stereo not shown) [Example 99, 4-[6-Amino-8-(3′-chlorobiphenyl-3-yl)-2,3,4,8-tetrahydroimidazo[1,5-a]pyrimidin-8-yl]phenyl trifluoromethanesulfonate acetate] | – | 113 nM
13 | COc1ccc(F)c(-c2cccc(C3(c4ccccc4)N=C(N)N4CCCN=C43)c2)c1 (stereo not shown) [Example 100, 8-(2′-Fluoro-5′-methoxybiphenyl-3-yl)-8-phenyl-2,3,4,8-tetrahydroimidazo[1,5-a]pyrimidin-6-amine hydrochloride] | – | 305 nM
14 | NC1=NC(c2ccccc2)(c2cccc(-c3cc(Cl)ccc3F)c2)C2=NCCCN12 (stereo not shown) [Example 101, 8-(5′-Chloro-2′-fluorobiphenyl-3-yl)-8-phenyl-2,3,4,8-tetrahydroimidazo[1,5-a]pyrimidin-6-amine hydrochloride] | – | 378 nM
15 | NC1=NC(c2ccccc2)(c2cccc(-c3cc(Cl)cc(Cl)c3)c2)C2=NCCCN12 (stereo not shown) [Example 102, 8-(3′,5′-Dichlorobiphenyl-3-yl)-8-phenyl-2,3,4,8-tetrahydroimidazo[1,5-a]pyrimidin-6-amine hydrochloride] | – | 149 nM
16 | COc1cc(OS(C)(=O)=O)cc(-c2cccc(C3(c4ccccc4)N=C(N)N4CCCN=C43)c2)c1 (stereo not shown) [Example 103, 3′-(6-Amino-8-phenyl-2,3,4,8-tetrahydroimidazo[1,5-a]pyrimidin-8-yl)-5-methoxybiphenyl-3-yl methanesulfonate hydrochloride] | – | 727 nM
17 | COc1ccc(C2(c3cccc(-c4cc(Cl)cc(Cl)c4)c3)N=C(N)N3CC(S(C)(=O)=O)CN=C32)cc1 (stereo not shown) [Example 124, 8-(3′,5′-Dichlorobiphenyl-3-yl)-8-(4-methoxyphenyl)-3-(methylsulfonyl)-2,3,4,8-tetrahydroimidazo[1,5-a]pyrimidin-6-amine 2.0 acetate] | – | 39 nM
18 | COc1ccc(C2(c3cccc(-c4cc(Cl)cc(Cl)c4)c3)N=C(N)N3CC(F)(F)CN=C32)cc1 (stereo not shown) [Example 132, 8-(3′,5′-Dichlorobiphenyl-3-yl)-3,3-difluoro-8-(4-methoxyphenyl)-2,3,4,8-tetrahydroimidazo[1,5-a]pyrimidin-6-amine 0.75 acetate] | – | 32 nM
19 | COc1ccc(C2(c3cccc(-c4cc(Cl)cc(Cl)c4)c3)N=C(N)N3CC(F)CN=C32)cc1 (stereo not shown) [Example 136, 8-(3′,5′-Dichlorobiphenyl-3-yl)-3-fluoro-8-(4-methoxyphenyl)-2,3,4,8-tetrahydroimidazo[1,5-a]pyrimidin-6-amine 1.5 acetate] | – | 34 nM
20 | CS(=O)(=O)Oc1cccc(C2(c3cccc(-c4cc(C(F)(F)F)cc(C(F)(F)F)c4)c3)N=C(N)N3CCCN=C32)c1 (stereo not shown) [Example 176, 3-[6-Amino-8-[3′,5′-bis(trifluoromethyl)biphenyl-3-yl]-2,3,4,8-tetrahydroimidazo[1,5-a]pyrimidin-8-yl]phenyl methanesulfonate] | – | 1200 nM
21 | NC1=NC(c2cccc(OS(=O)(=O)C(F)(F)F)c2)(c2cccc(-c3cccc(Cl)c3)c2)C2=NCCCN12 (stereo not shown) [Example 177, 3-[6-Amino-8-(3′-chlorobiphenyl-3-yl)-2,3,4,8-tetrahydroimidazo[1,5-a]pyrimidin-8-yl]phenyl trifluoromethanesulfonate] | – | 246 nM
22 | COc1cccc(C2(c3cccc(-c4cc(Cl)cc(Cl)c4)c3)N=C(N)N3CCCN=C32)c1 (stereo not shown) [Example 178, 8-(3′,5′-Dichlorobiphenyl-3-yl)-8-(3-methoxyphenyl)-2,3,4,8-tetrahydroimidazo[1,5-a]pyrimidin-6-amine] | – | 92 nM
23 | CS(=O)(=O)Oc1cccc(C2(c3cccc(-c4cc(Cl)cc(Cl)c4)c3)N=C(N)N3CCCN=C32)c1 (stereo not shown) [Example 181, 3-[6-Amino-8-(3′,5′-dichlorobiphenyl-3-yl)-2,3,4,8-tetrahydroimidazo[1,5-a]pyrimidin-8-yl]phenyl methanesulfonate] | – | 106 nM
24 | CS(=O)(=O)Oc1cccc(C2(c3cccc(-c4cccc(Cl)c4)c3)N=C(N)N3CCCN=C32)c1 (stereo not shown) [Example 182, 3-[6-Amino-8-(3′-chlorobiphenyl-3-yl)-2,3,4,8-tetrahydroimidazo[1,5-a]pyrimidin-8-yl]phenyl methanesulfonate] | – | 285 nM
25 | COc1cccc(-c2cccc(C3(c4cccc(OS(C)(=O)=O)c4)N=C(N)N4CCCN=C43)c2)c1 (stereo not shown) [Example 183, 3-[6-Amino-8-(3′-methoxybiphenyl-3-yl)-2,3,4,8-tetrahydroimidazo[1,5-a]pyrimidin-8-yl]phenyl methanesulfonate] | – | 252 nM
26 | CCCS(=O)(=O)Oc1cccc(C2(c3cccc(-c4cc(Cl)cc(Cl)c4)c3)N=C(N)N3CCCN=C32)c1 (stereo not shown) [Example 184, 3-[6-Amino-8-(3′,5′-dichlorobiphenyl-3-yl)-2,3,4,8-tetrahydroimidazo[1,5-a]pyrimidin-8-yl]phenyl propane-1-sulfonate] | – | 69 nM
27 | CCCS(=O)(=O)Oc1cccc(C2(c3cccc(-c4cccc(OC)c4)c3)N=C(N)N3CCCN=C32)c1 (stereo not shown) [Example 185, 3-[6-Amino-8-(3′-methoxybiphenyl-3-yl)-2,3,4,8-tetrahydroimidazo[1,5-a]pyrimidin-8-yl]phenyl propane-1-sulfonate] | – | 106 nM
28 | NC1=NC(c2cccc(OS(=O)(=O)C3CC3)c2)(c2cccc(-c3cc(Cl)cc(Cl)c3)c2)C2=NCCCN12 (stereo not shown) [Example 186, 3-[6-Amino-8-(3′,5′-dichlorobiphenyl-3-yl)-2,3,4,8-tetrahydroimidazo[1,5-a]pyrimidin-8-yl]phenyl cyclopropanesulfonate] | – | 51 nM

Reference: patent US20080058349A1, “New Compounds 318” (Astrazeneca AB, priority 2006, published 2008)
